Patent US20150031674A1, “SERINE/THREONINE KINASE INHIBITORS” (GENENTECH, INC., priority 2013, published 2015)

Biological target: human recombinant PAK1-KD protein (Homo sapiens, UniProt Q13153)
Assay: PAK1-KD (Kinase Domain) IC50 Zlyte Assay (FRET peptide substrate phosphorylation)
Settings: Z'-LYTE, Biological Example 1

Chain of human recombinant PAK1-KD protein (Q13153 270-521 limits assumed): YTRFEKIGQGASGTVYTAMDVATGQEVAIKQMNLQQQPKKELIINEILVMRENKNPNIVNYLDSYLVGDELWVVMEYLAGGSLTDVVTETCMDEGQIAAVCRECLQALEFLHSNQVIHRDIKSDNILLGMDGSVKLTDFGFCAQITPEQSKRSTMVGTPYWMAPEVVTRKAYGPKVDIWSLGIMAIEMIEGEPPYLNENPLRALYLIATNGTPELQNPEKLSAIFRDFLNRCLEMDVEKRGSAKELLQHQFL

Compound | Ki
CCNc1ncc2cc(-c3ccc(-c4cncc(C)n4)cc3Cl)c(=O)n(C(C)COC3CNC3)c2n1 (single isomer, unassigned) [Example I-119, 8-[2-(azetidin-3-yloxy)-1-methyl-ethyl]-6-[2-chloro-4-(6-methylpyrazin-2-yl)phenyl]-2-(ethylamino)pyrido[2,3-d]pyrimidin-7-one] | 77 nM
CCNc1ncc2cc(-c3ccc(-c4cncc(C)n4)cc3Cl)c(=O)n(CCC(O)CO)c2n1 (stereo in doubt) [Example I-79, (R)-6-(2-Chloro-4-(6-methylpyrazin-2-yl)phenyl)-8-(3,4-dihydroxybutyl)-2-(ethylamino)pyrido[2,3-d]pyrimidin-7(8H)-one] | 43.5 nM
Cc1cncc(-c2ccc(-c3cc4cnc(NC5COC5)nc4n(C[C@H]4OC[C@H](N)CO4)c3=O)c(Cl)c2)n1 [Example I-164, 8-[(5-amino-1,3-dioxan-2-yl)methyl]-6-[2-chloro-4-(6-methylpyrazin-2-yl)phenyl]-2-(oxetan-3-ylamino)pyrido[2,3-d]pyrimidin-7-one] | 9.9 nM
CNc1ncc2cc(-c3ccc(-c4cccc(C)n4)cc3C)c(=O)n(C[C@H]3OC[C@H](N)CO3)c2n1 [Example I-170, 8-[(5-Amino-1,3-dioxan-2-yl)methyl]-2-(methylamino)-6-[2-methyl-4-(6-methyl-2-pyridyl)phenyl]pyrido[2,3-d]pyrimidin-7-one] | 5.3 nM
CCNc1ncc2cc(-c3ccc(-c4cncc(C)n4)cc3Cl)c(=O)n(CC3CCN(CCO)CC3)c2n1 [Example I-39, 6-(2-Chloro-4-(6-methylpyrazin-2-yl)phenyl)-2-(ethylamino)-8-((1-(2-hydroxyethyl)piperidin-4-yl)methyl)pyrido[2,3-d]pyrimidin-7(8H)-one] | 40 nM
CNc1ncc2cc(-c3ccc(-c4cncc(C)n4)cc3Cl)c(=O)n(CCC3CNC(=O)C3)c2n1 (stereo not shown) [Example I-109, 6-[2-Chloro-4-(6-methylpyrazin-2-yl)phenyl]-2-(methylamino)-8-[2-(5-oxopyrrolidin-3-yl)ethyl]pyrido[2,3-d]pyrimidin-7-one] | 43.3 nM
CNc1ncc2cc(-c3ccc(-c4csc(C5CC5)n4)cc3Cl)c(=O)n(C[C@H]3CNCCO3)c2n1 [Example I-185, 6-[2-chloro-4-(2-cyclopropylthiazol-4-yl)phenyl]-2-(methylamino)-8-[[(2R)-morpholin-2-yl]methyl]pyrido[2,3-d]pyrimidin-7-one] | 47.3 nM
CNc1ncc2cc(-c3ccc(-c4ncn(C)n4)cc3Cl)c(=O)n(C[C@H]3CNCCO3)c2n1 [Example I-192, 6-[2-chloro-4-(1-methyl-1 2 4-triazol-3-yl)phenyl]-2-(methylamino)-8-[[(2R)-morpholin-2-yl]methyl]pyrido[2,3-d]pyrimidin-7-one] | 4400 nM
CCNc1ncc2cc(-c3ccc(-c4cncc(C)n4)cc3Cl)c(=O)n(CCOC3CC(N)C3)c2n1 (stereo not shown) [Example I-117, 8-(2-(3-Aminocyclobutoxy)ethyl)-6-(2-chloro-4-(6-methylpyrazin-2-yl)phenyl)-2-(ethylamino)-pyrido[2,3-d]pyrimidin-7(8H)-one] | 3.7 nM
Cc1cccc(-c2ccc(-c3cc4cnc(N)nc4n(CCCN)c3=O)c(C)c2)n1 [Example I-72, 2-Amino-8-(3-aminopropyl)-6-[2-methyl-4-(6-methyl-2-pyridyl)phenyl]pyrido[2,3-d]pyrimidin-7-one] | 21.1 nM
CNc1ncc2cc(-c3ccc(-c4cncc(C)n4)cc3Cl)c(=O)n(CCC3OCC(N)CO3)c2n1 (stereo not shown) [Example I-37, 8-[2-(5-amino-1,3-dioxan-2-yl)ethyl]-6-[2-chloro-4-(6-methylpyrazin-2-yl)phenyl]-2-(methylamino)pyrido[2,3-d]pyrimidin-7-one] | 7.5 nM
CCNc1ncc2cc(-c3ccc(-c4cncc(C)n4)cc3Cl)c(=O)n(CCN3CCN(C)CC3)c2n1 [Example I-27, 6-(2-Chloro-4-(6-methylpyrazin-2-yl)phenyl)-2-(ethylamino)-8-(2-(4-methylpiperazin-1-yl)ethyl)pyrido[2,3-d]pyrimidin-7(8H)-one] | 47.6 nM
CCNCC(O)Cn1c(=O)c(-c2ccc(-c3cncc(C)n3)cc2Cl)cc2cnc(NCC)nc21 (stereo not shown) [Example I-25, 6-[2-chloro-4-(6-methylpyrazin-2-yl)phenyl]-2-(ethylamino)-8-[3-(ethylamino)-2-hydroxy-propyl]pyrido[2,3-d]pyrimidin-7-one] | 67.1 nM
CCNc1ncc2cc(-c3ccc(-c4cncc(C)n4)cc3Cl)c(=O)n(C[C@H]3[C@@H]4CNC[C@@H]43)c2n1 [Example I-82, 8-((1R,5S,6R)-3-Azabicyclo[3.1.0]hexan-6-ylmethyl)-6-(2-chloro-4-(6-methylpyrazin-2-yl)phenyl)-2-(ethylamino)pyrido[2,3-d]pyrimidin-7(8H)-one] | 9.6 nM

Further lines, results first:

Ki | Compound
7.3 nM | CNc1ncc2cc(-c3ccc(-c4cccc(C)n4)cc3C)c(=O)n(C[C@H]3CNCCO3)c2n1 [Example I-148, 2-(Methylamino)-6-[2-methyl-4-(6-methyl-2-pyridyl)phenyl]-8-[[(2R)-morpholin-2-yl]methyl]pyrido[2,3-d]pyrimidin-7-one]
4.2 nM | Cc1cccc(-c2ccc(-c3cc4cnc(NC(C)C)nc4n(CC(=O)N4CCNCC4)c3=O)c(Cl)c2)n1 [Example I-35, 6-[2-Chloro-4-(6-methyl-2-pyridyl)phenyl]-2-(isopropylamino)-8-(2-oxo-2-piperazin-1-yl-ethyl)pyrido[2,3-d]pyrimidin-7-one]
92.9 nM | CNc1ncc2cc(-c3ccc(-c4cncc(C)n4)cc3Cl)c(=O)n(CC(=O)NCCO)c2n1 [Example I-85, 2-[6-[2-Chloro-4-(6-methylpyrazin-2-yl)phenyl]-2-(methylamino)-7-oxo-pyrido[2,3-d]pyrimidin-8-yl]-N-(2-hydroxyethyl)acetamide]
0.7 nM | Cc1cccc(-c2ccc(-c3cc4cnc(NC5COC5)nc4n(CCC4CNCCO4)c3=O)c(C)c2)n1 (single isomer, unassigned) [Example I-114, 6-(2-methyl-4-(6-methylpyridin-2-yl)phenyl)-8-(2-(morpholin-2-yl)ethyl)-2-(oxetan-3-ylamino)pyrido[2,3-d]pyrimidin-7(8H)-one]
0.654 nM | Cc1cccc(-c2ccc(-c3cc4cnc(NC5COC5)nc4n(CC[C@H]4OC[C@@H](N)CO4)c3=O)c(Cl)c2)n1 [Example I-135, 8-[2-(5-amino-1,3-dioxan-2-yl)ethyl]-6-[2-chloro-4-(6-methyl-2-pyridyl)phenyl]-2-(oxetan-3-ylamino)pyrido[2,3-d]pyrimidin-7-one]
19.1 nM | Cc1cncc(-c2ccc(-c3cc4cnc(NC(C)C)nc4n(CCC4CNC(=O)C4)c3=O)c(Cl)c2)n1 (single isomer, unassigned) [Example I-99, 6-[2-Chloro-4-(6-methylpyrazin-2-yl)phenyl]-2-(isopropylamino)-8-[2-(5-oxopyrrolidin-3-yl)ethyl]pyrido[2,3-d]pyrimidin-7-one]
31.6 nM | CNc1ncc2cc(-c3ccc(-c4cccc(C)n4)cc3Cl)c(=O)n(CC3CNCCS3(=O)=O)c2n1 (single isomer, unassigned) [I-197 Isomer B, 6-[2-chloro-4-(6-methyl-2-pyridyl)phenyl]-8-[(1,1-dioxo-1 4-thiazinan-2-yl)methyl]-2-(methylamino)pyrido[2,3-d]pyrimidin-7-one]
7.08 nM | CCNc1ncc2cc(-c3ccc(-c4cccc(C)n4)cc3Cl)c(=O)n(CC[C@H](O)CO)c2n1 [Example I-123, 6-[2-Chloro-4-(6-methyl-2-pyridyl)phenyl]-8-[(3S)-3,4-dihydroxybutyl]-2-(ethylamino)pyrido[2,3-d]pyrimidin-7-one]
0.9 nM | Cc1cccc(-c2ccc(-c3cc4cnc(NC5COC5)nc4n(CC[C@H]4OC[C@@H](N)CO4)c3=O)c(Cl)c2)n1 [Example I-133]
14.5 nM | CNc1ncc2cc(-c3ccc(-c4cccc(C)n4)cc3C)c(=O)n(CCCO)c2n1 [Example I-132, 8-(3-hydroxypropyl)-2-(methylamino)-6-[2-methyl-4-(6-methyl-2-pyridyl)phenyl]pyrido[2,3-d]pyrimidin-7-one]
3.45 nM | CNc1ncc2cc(-c3ccc(-c4cccc(C)n4)cc3Cl)c(=O)n(CC[C@H]3OC[C@@H](N)CO3)c2n1 [Example I-134, 8-[2-(5-amino-1,3-dioxan-2-yl)ethyl]-6-[2-chloro-4-(6-methyl-2-pyridyl)phenyl]-2-(methylamino)pyrido[2,3-d]pyrimidin-7-one]
3.6 nM | CNc1ncc2cc(-c3ccc(-c4cccc(C)n4)cc3C)c(=O)n(CCOCCN)c2n1 [Example I-97, 8-[2-(2-Aminoethoxy)ethyl]-2-(methylamino)-6-[2-methyl-4-(6-methyl-2-pyridyl)phenyl]pyrido[2,3-d]pyrimidin-7-one]
12.9 nM | CNc1ncc2cc(-c3ccc(-c4cccc(C)n4)cc3Cl)c(=O)n(C[C@@H]3CNCCO3)c2n1 [Example I-173, 6-[2-chloro-4-(6-methyl-2-pyridyl)phenyl]-2-(methylamino)-8-[[(2S)-morpholin-2-yl]methyl]pyrido[2,3-d]pyrimidin-7-one]
47.6 nM | CCNc1ncc2cc(-c3ccc(-c4cncc(C)n4)cc3Cl)c(=O)n(CC(C)OC3CNC3)c2n1 (single isomer, unassigned) [Example I-92]
4 nM | CNc1ncc2cc(-c3ccc(-c4cccc(C)n4)cc3Cl)c(=O)n(CCS(=O)(=O)N3CCNCC3)c2n1 [Example I-141, 6-[2-chloro-4-(6-methyl-2-pyridyl)phenyl]-2-(methylamino)-8-(2-piperazin-1-ylsulfonylethyl)pyrido[2,3-d]pyrimidin-7-one]
9.9 nM | CCNc1ncc2cc(-c3ccc(-c4cccc(C)n4)cc3Cl)c(=O)n(CCOC3CNC3)c2n1 [Example I-30, 8-[2-(azetidin-3-yloxy)ethyl]-6-[2-chloro-4-(6-methyl-2-pyridyl)phenyl]-2-(ethylamino)pyrido[2,3-d]pyrimidin-7-one]
26.8 nM | CNc1ncc2cc(-c3ccc(-c4cccc(C)n4)cc3Cl)c(=O)n(C[C@@H]3CN(C)CCO3)c2n1 [Example I-183, 6-[2-chloro-4-(6-methyl-2-pyridyl)phenyl]-2-(methylamino)-8-[[(2S)-4-methylmorpholin-2-yl]methyl]pyrido[2,3-d]pyrimidin-7-one]
